Results as given in paper PMC9511441, “Semisynthetic teicoplanin derivatives with dual antimicrobial activity against SARS-CoV-2 and multiresistant bacteria” (Scientific Reports, 2022).
Where two headings read alike, the source gives them in different places.

Experiments:
SARS-CoV-2 pseudovirus [1] = test: microbe, parasite or virus in culture; assay type: cell-based; conditions: A549-AT cells (ACE2 and TMPRSS2), luciferase signal, mean ± SEM of 3 tests, read-out: EC50, inhibition of SARS-CoV-2 pseudovirus entry in A549-AT cells
SARS-CoV-2 pseudovirus [2] = test: microbe, parasite or virus in culture; assay type: cell-based; conditions: Vero cells, luciferase signal, mean ± SEM of 3 tests, read-out: EC50, inhibition of SARS-CoV-2 pseudovirus entry in Vero cells
[3] = Severe acute respiratory syndrome-related coronavirus

Structure (SMILES) | EC50 (SARS-CoV-2 pseudovirus [1]; [3]) [µM] | EC50 (SARS-CoV-2 pseudovirus [2]; [3]) [µM] | EC50 (SARS-CoV-2 pseudovirus [1]) [µM] | EC50 (SARS-CoV-2 pseudovirus [2]) [µM]
CN(C)C(=O)COC(=O)Cc1ccc(OC(=O)c2ccc(NC(=N)N)cc2)cc1 [Camostat, camostat, reference compound] | 0.49 ± 0.05 | > 20 |  | 
CCOC(=O)[C@H]1O[C@@H]1C(=O)N[C@@H](CC(C)C)C(=O)NCCC(C)C [Compound E64d, reference compound] |  |  | > 20 | 1.3 ± 1.2
